Data set [1] deals with glutamate carboxypeptidase II. Conditions: cited from earlier work.
The nature of data set [2]: Ex vivo biodistribution in mice bearing LNCaP tumor xenografts. More on the design: species or system mouse (male NOD-scid IL2Rg^null (NSG)). The following applies: mouse, iv, mean ± SD. How it is done:
(§1) All imaging and biodistribution studies used male NOD-scid IL2Rg^null (NSG) mice and conducted according to the guidelines established by the Canadian Council on Animal Care and approved by Animal Ethics Committee of the University of British Columbia. For tumor inoculations, mice were anesthetized via inhalation of 2% isoflurane in oxygen and implanted subcutaneously with 5×10^6 LNCaP cells below the left shoulder. Imaging and biodistribution studies were performed only after tumors grew to 5-8 mm in diameter.
(§2) For PET/CT imaging studies, approximately 5 MBq of the ^18F-labeled tracer was injected through the tail vein. While for ex vivo biodistribution studies, mice were injected with around 2 MBq of the ^18F-labeled tracer through the tail vein. Mice were allowed to recover and roam freely in the cages after injecting the tracer. At 45 min post-injection, imaging mouse were sedated again and positioned on the scanner. A 10 min CT scan was conducted first to allow for localization and attenuation correction for later reconstruction of PET images. A 10 min PET image was acquired following CT scan. Heating pads were used during the entire procedure to keep the mice warm and circulate the blood. At 1 h post-injection, all mice for biodistribution study were euthanized with blood drawn from heart, and all tissues of interest were collected, rinsed with PBS, blotted dry, weighed, and counted using an automated gamma counter. The uptake in each organ/tissue was normalized to the injected dose and expressed as the percentage of the injected dose per gram of tissue (% ID/g).
(§3) Representative maximum intensity projection PET images of ^18F-KLF1007-pyridine-BF3 and ^18F-KL01040 acquired at 1 h post-injection from LNCaP tumor-bearing mice is enumerated in Table 4 and shown in FIG. 1. Representative maximum intensity projection PET images of ^18F-KL01120 and ^18F-KL01130 acquired at 1 h post-injection from LNCaP tumor-bearing mice is also enumerated in Table 5 and shown in FIG. 2 (^18F-KL1120) and enumerated in Table 6 and shown in FIG. 3 (^18F-KL01130).

In another data set the test system is LNCaP tumor xenografts. The description is as above. More on the design: species or system mouse (male NOD-scid IL2Rg^null (NSG)). Conditions: mean ± SD. The protocol:
as §1, §2, §3

Where [3] appears, read: 1 h Blocked (co-injection of 2-PMPA, 0.5 mg).

Like-named read-outs stand apart in the source and are kept apart here.

With `O=C(O)CC[C@H](NC(=O)N[C@@H](CCCCNC(=O)c1ccc(F)nc1)C(=O)O)C(=O)O` [^18F-DCFPyL], the liver uptake result in data set [1] (reduces sensitivity for detecting metastatic lesions in liver) is reported as “high”.

With `O=C(O)CCC[C@H](NC(=O)N[C@@H](CCCCNC(=O)[C@H](Cc1c2ccccc2cc2ccccc12)NC(=O)[C@H]1CC[C@H](CNC(=O)CNC(=O)[C@H](CCCCNC(=O)c2ccc(F)nc2)NC(=O)CN(CC(=O)O)CC(=O)O)CC1)C(=O)O)C(=O)O` [^18F-KL01130], the tissue uptake at 1 h in data set [2] (adrenal glands, 1 h Blocked (co-injection of 2-PMPA, 0.5 mg), read-out: Adrenal Glands uptake) was 0.39 ± 0.17 %ID/g; in data set [2] (adrenal glands, 1 h post-injection, read-out: Adrenal Glands uptake), 0.59 ± 0.06 %ID/g; in data set [2] (blood, 1 h Blocked (co-injection of 2-PMPA, 0.5 mg), read-out: Blood uptake), 1.78 ± 0.12 %ID/g; in data set [2] (blood, 1 h post-injection, read-out: Blood uptake), 1.2 ± 0.26 %ID/g; in data set [2] (bone, 1 h Blocked (co-injection of 2-PMPA, 0.5 mg), read-out: Bone uptake), 0.57 ± 0.16 %ID/g; in data set [2] (bone, 1 h post-injection, read-out: Bone uptake), 0.52 ± 0.17 %ID/g. Moreover, the tissue uptake at 1 h in data set [2] (brain, 1 h Blocked (co-injection of 2-PMPA, 0.5 mg), read-out: Brain uptake) amounted to 0.04 %ID/g; in data set [2] (brain, 1 h post-injection, read-out: Brain uptake), 0.04 ± 0.01 %ID/g; in data set [2] (fat, 1 h Blocked (co-injection of 2-PMPA, 0.5 mg), read-out: Fat uptake), 0.33 ± 0.1 %ID/g; in data set [2] (fat, 1 h post-injection, read-out: Fat uptake), 0.22 ± 0.09 %ID/g; in data set [2] (heart, 1 h Blocked (co-injection of 2-PMPA, 0.5 mg), read-out: Heart uptake) it was 0.45 ± 0.05 %ID/g; in data set [2] (heart, 1 h post-injection, read-out: Heart uptake) it was 0.34 ± 0.07 %ID/g. Further, the tissue uptake at 1 h in data set [2] (kidneys, 1 h Blocked (co-injection of 2-PMPA, 0.5 mg), read-out: Kidneys uptake) is 4.77 ± 0.3 %ID/g; in data set [2] (kidneys, 1 h post-injection, read-out: Kidneys uptake), 19 ± 5.04 %ID/g; in data set [2] (lacrimal glands, 1 h Blocked (co-injection of 2-PMPA, 0.5 mg), read-out: Lacrimal Glands uptake) it was 0.04 ± 0.02 %ID/g; in data set [2] (lacrimal glands, 1 h post-injection, read-out: Lacrimal Glands uptake) it was 0.1 ± 0.06 %ID/g; in data set [2] (large intestine, 1 h Blocked (co-injection of 2-PMPA, 0.5 mg), read-out: Large Intestine uptake), 0.26 ± 0.1 %ID/g; in data set [2] (large intestine, 1 h post-injection, read-out: Large Intestine uptake), 0.2 ± 0.1 %ID/g. Also, the tissue uptake at 1 h in data set [2] (liver, 1 h Blocked (co-injection of 2-PMPA, 0.5 mg), read-out: Liver uptake) was found to be 0.67 ± 0.07 %ID/g; in data set [2] (liver, 1 h post-injection, read-out: Liver uptake), 0.47 ± 0.06 %ID/g; in data set [2] (lncap tumor, 1 h Blocked (co-injection of 2-PMPA, 0.5 mg), read-out: LNCaP Tumor uptake) it was 2.11 ± 0.02 %ID/g; in data set [2] (lncap tumor, 1 h post-injection, read-out: LNCaP Tumor uptake) it was 8.01 ± 0.9 %ID/g; in data set [2] (lungs, 1 h Blocked (co-injection of 2-PMPA, 0.5 mg), read-out: Lungs uptake) it was 1.22 ± 0.17 %ID/g; in data set [2] (lungs, 1 h post-injection, read-out: Lungs uptake), 0.96 ± 0.19 %ID/g. The tissue uptake at 1 h in data set [2] (muscle, 1 h Blocked (co-injection of 2-PMPA, 0.5 mg), read-out: Muscle uptake) stood at 0.2 ± 0.02 %ID/g; in data set [2] (muscle, 1 h post-injection, read-out: Muscle uptake) it was 0.34 ± 0.24 %ID/g; in data set [2] (pancreas, 1 h Blocked (co-injection of 2-PMPA, 0.5 mg), read-out: Pancreas uptake), 0.32 ± 0.04 %ID/g; in data set [2] (pancreas, 1 h post-injection, read-out: Pancreas uptake), 0.21 ± 0.05 %ID/g; in data set [2] (salivary glands, 1 h Blocked (co-injection of 2-PMPA, 0.5 mg), read-out: Salivary Glands uptake) it was 0.49 ± 0.14 %ID/g; in data set [2] (salivary glands, 1 h post-injection, read-out: Salivary Glands uptake), 0.52 ± 0.18 %ID/g. The tissue uptake at 1 h in data set [2] (seminal gland, 1 h Blocked (co-injection of 2-PMPA, 0.5 mg), read-out: Seminal Gland uptake) was found to be 0.22 ± 0.06 %ID/g; in data set [2] (seminal glands, 1 h post-injection, read-out: Seminal Glands uptake), 0.15 ± 0.04 %ID/g; in data set [2] (small intestine, 1 h Blocked (co-injection of 2-PMPA, 0.5 mg), read-out: Small Intestine uptake), 2.4 ± 0.36 %ID/g; in data set [2] (small intestine, 1 h post-injection, read-out: Small Intestine uptake), 2.01 ± 0.6 %ID/g; in data set [2] (spleen, 1 h Blocked (co-injection of 2-PMPA, 0.5 mg), read-out: Spleen uptake), 0.31 ± 0.06 %ID/g; in data set [2] (spleen, 1 h post-injection, read-out: Spleen uptake), 0.36 ± 0.09 %ID/g. The tissue uptake at 1 h in data set [2] (stomach, 1 h Blocked (co-injection of 2-PMPA, 0.5 mg), read-out: Stomach uptake) amounted to 0.36 ± 0.15 %ID/g; in data set [2] (stomach, 1 h post-injection, read-out: Stomach uptake) it was 0.19 ± 0.11 %ID/g; in data set [2] (testes, 1 h Blocked (co-injection of 2-PMPA, 0.5 mg), read-out: Testes uptake), 0.41 ± 0.05 %ID/g; in data set [2] (testes, 1 h post-injection, read-out: Testes uptake), 0.29 ± 0.05 %ID/g; in data set [2] (thyroid, 1 h Blocked (co-injection of 2-PMPA, 0.5 mg), read-out: Thyroid uptake) it was 0.48 ± 0.03 %ID/g; in data set [2] (thyroid, 1 h post-injection, read-out: Thyroid uptake), 0.38 ± 0.16 %ID/g. The “Tumor:Muscle uptake ratio” value in the data set on LNCaP tumor xenografts (setting [3]) is 10.4 ± 1.31; with LNCaP tumor xenografts (1 h post-injection) it was 35.7 ± 5.75. Moreover, the “Tumour:Blood uptake ratio” value with LNCaP tumor xenografts (setting [3]) is listed as 1.19 ± 0.12; in the data set with LNCaP tumor xenografts (1 h post-injection), 6.93 ± 1.54. Also, the entries for the “Tumour:Bone uptake ratio” value with LNCaP tumor xenografts (setting [3]) and in the data set on LNCaP tumor xenografts (1 h post-injection) were 3.89 ± 1.05 and 14.6 ± 4.27, respectively. For the same compound, the “Tumour:Kidney uptake ratio” value is recorded as 0.44 ± 0.05 in the data set with LNCaP tumor xenografts (setting [3]) and 0.59 ± 0.35 in the data set with LNCaP tumor xenografts (1 h post-injection).

For `O=C(O)CC[C@H](NC(=O)N[C@@H](CCCCNC(=O)[C@H](Cc1ccc2ccccc2c1)NC(=O)c1ccc(CNC(=O)[C@H](CCC(=O)O)NC(=O)[C@H](CCC(=O)O)NC(=O)c2ccc(F)nc2)cc1)C(=O)O)C(=O)O` [^18F-PSMA-1007], the “nonspecific uptake level in most normal tissues” value in data set [1] (compared to ^18F-DCFPyL) is listed as “even higher”.

The values are drawn from patent US20260306680A1, “RADIOLABELED COMPOUNDS TARGETING THE PROSTATE-SPECIFIC MEMBRANE ANTIGEN” (PROVINCIAL HEALTH SERVICES AUTHORITY, priority 2022, published 2026).
